In patent publication US10550165B2, “Peptide for inducing regeneration of tissue and use thereof” (STEMRIM INC., priority 2011, dated 2020):

Legend:
[1] = system: mouse bone marrow mesenchymal stem cell line (MSC-1 cells), PDGFRα-positive; test: Migration assay (Boyden / 48-well chemotaxis chamber) on bone marrow mesenchymal stem cell line MSC-1; type: cell-based
How it was run: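 Mouse MSC-1 cells (3×10^6 cells/ml in D-MEM with 10% FBS) loaded in the upper wells of a 48-well Boyden chamber with 8 μm polycarbonate membrane; mouse HMGB1 peptides or HEK293-made HMGB1 in lower wells at 100 μg/ml, 5 μM or 10 μM; PBS as negative control. After 4 h at 37° C, migrated cells were Diff-Quik stained.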

[2] = system: CD11b-negative, PDGFRα-positive cells (primary cultured bone marrow mesenchymal cells); test: Migration assay on primary cultured CD11b-negative, PDGFRα-positive bone marrow cells; type: cell-based, mouse; details: peptide produced in HEK293, 40 μg/ml, FIG. 5
Experimental: Thigh and tibial bones were excised from donor mice: B6.129S4-Pdgfratm11(EGFP)Sor/J (PDGFRα-GFP Mouse). After removing attached muscles and other tissues, the bones were crushed finely and incubated with 0.2% collagenase (Roche, REF: 10103586001)/DMEM/2% FBS(filtrated) at 37° C. for 40 minutes. Then, cell aggregates and muscle tissues were removed by filtration through a 40-μm nylon mesh. After centrifugation at 1200 rpm for 10 minutes, the resulting cells were suspended in αMEM containing 10% FBS and 1% P/S and cultured in an incubator under 5% CO2 at 37° C. until they reached 100% confluence. The cells were harvested and the following experiment was carried out according to the protocol attached to CD11b MicroBeads (Miltenyi Biotec; order No: 130-049-601). The cells were adjusted to 10^7 cells/90 μl with PBS(−), and CD11b MicroBeads were added at 10 μl/10^7 cells. After 15 minutes of reaction at 4° C., the cells were washed twice and suspended in 500 μl of PBS(−). The tube was placed in AutoMACS separator and the cells were collected according to the separation program “Depletes”. The collected cells were plated onto an adherent cell culture dish. After adhesion, GFP fluorescence was observed using a fluorescence microscope. The above-described peptide 1-44 produced in HEK293 was tested for the migration-promoting activity using CD11b-negative cells. […]

[3] = system: mouse skin fibroblasts; test: Migration assay on mouse skin fibroblasts; type: cell-based; details: synthetic peptide, PDGFRα-positive cells, FIG. 13A
Experimental: Newborn C57/B16 mice were euthanized using isoflurane and carbon dioxide inhalation. Then, the mice were washed thoroughly with EtOH and PBS. The skin together with dermis was exfoliated and the blood was washed off with PBS. The exfoliated skin was cut into fine pieces with scissors. The skin pieces were placed in DMEM (Nacalai tesque, Cat: 08458-45) containing 0.2% collagenase (Roche, REF: 10103586001) and shaken at 37° C. for 30 minutes. The reaction was stopped with DMEM/30% FBS/P/S. The resulting cells were centrifuged at 160×G for 5 minutes and plated in a 10-cm dish. The cells were cultured under 5% CO2 at 37° C. and the medium was changed every three days. The cells were passaged when they reached 80% to 90% confluency. The cells were harvested from the dish using trypsin. After inactivation of trypsin with D-MEM containing 10% FBS, a synthetic peptide consisting of the amino acid sequence of positions 1 to 34 (1-34) was assessed for migration-promoting activity according to the migration assay method described above.

[4] = system: mouse keratinocytes; test: Migration assay on mouse keratinocytes; type: cell-based; details: synthetic peptide, PDGFRα-negative cells, FIG. 12A
Experimental: Newborn C57/B16 mice were euthanized using isoflurane and carbon dioxide inhalation. Then, the mice were washed thoroughly with EtOH and PBS. The skin together with dermis was exfoliated and the blood was washed off with PBS. The exfoliated skin was placed in Dispase I (Sanko Junyaku Co., Cat: GD81060) at 4° C. for 16 hours. The epidermis and dermis were detached with forceps, and the epidermis was placed in trypsin (Nacalai tesque, Cat: 3554-64) at 37° C. for 10 minutes. When white turbidity began to appear, the reaction was stopped with S-MEM (GIBCO, Cat: 11380)/15% FBS(Ca-)P/S. The resulting cells were centrifuged at 160×G for 5 minutes, and suspended in CnT-07 medium (CELLnTEC, Cat: CnT-07 BM) and plated in a 10-cm dish. The cells were cultured under 5% CO2 at 37° C. and the medium was changed every three days. The cells were passaged when they reached 80% to 90% confluency. The cells were harvested from the dish using trypsin. After inactivation of trypsin with DMEM containing 10% FBS, a synthetic peptide consisting of the amino acid sequence of positions 1 to 34 (1-34) was examined for migration-promoting activity according to the migration assay method described above.

[5] = 2 μM, area of migrated cells by image analysis, FIG. 10

| Substance | migration-promoting activity relative to the full-length HMGB1, compared per equal mass [1, 5] | migration-promoting activity relative to the full-length HMGB1, compared per equal mole [1, 5] | migration-promoting activity ([1]; protein and peptides produced using HEK293 (mouse HMGB1), 50 μg/ml, 4 h, FIG. 2A) | migration-promoting activity [2] | migration-promoting activity on skin fibroblasts [3] | migration-promoting activity ([1]; synthetic peptides, 100 μg/ml, positive control 1-215(HEK), FIG. 7) | migration-promoting activity on mouse keratinocytes [4] |
| --- | --- | --- | --- | --- | --- | --- | --- |
| 1-44: peptide of positions 1 to 44 of mouse HMGB1, produced using HEK293 (MGKGDPKKPRGKMSSYAFFVQTCREEHKKKHPDASVNFSEFSKK; UniProt P63158 1-44, looked up, fragment) | about 8 times | about 1.6 times | showed migration-promoting activity | strong migration-promoting activity |  |  |  |
| (1-34): synthetic peptide consisting of the amino acid sequence from positions 1 to 34 of HMGB1 (MGKGDPKKPRGKMSSYAFFVQTCREEHKKKHPDA; UniProt P09429 1-34, looked up, fragment) |  |  |  |  | exhibited migration-promoting activity | activity comparable to or higher than that of the positive control | did not show migration-promoting activity |
